# Assays:
# Format in all cases: biochemical
# Abl = target: T1, Abl (Homo sapiens, UniProt P00519); test: AlphaScreen kinase assay, Abl; conditions: read-out: activity toward kinase Abl, IC50
# T1 construct: P1121. pET-SPEC BI-PTP Abl G227-V515-X; His6 (N); made in house; host or cells: E. coli (PTP1B co-expressed)
# T1 sequence (P00519 with tags, fused parts or gaps): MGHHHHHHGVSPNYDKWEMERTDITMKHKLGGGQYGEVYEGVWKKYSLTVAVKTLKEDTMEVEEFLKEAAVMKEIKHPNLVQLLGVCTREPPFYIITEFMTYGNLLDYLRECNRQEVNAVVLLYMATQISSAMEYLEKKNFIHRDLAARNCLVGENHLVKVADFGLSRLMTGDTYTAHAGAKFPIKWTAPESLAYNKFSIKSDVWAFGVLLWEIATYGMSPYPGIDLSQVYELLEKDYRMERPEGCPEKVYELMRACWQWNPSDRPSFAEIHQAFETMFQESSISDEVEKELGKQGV
# Procedure, shortened: (§1)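 AlphaScreen read-out: acceptor-bead emission falls when kinase is inhibited. Biotin-peptide substrate captured on streptavidin donor beads, phospho-specific antibody on acceptor beads. 8 concentrations, 1:3 dilution series, from 20 mM DMSO stocks.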
# c-Raf-1 = target: T2, c-Raf-1 (Homo sapiens, UniProt P04049); test: AlphaScreen kinase assay, c-Raf-1; conditions: read-out: IC50, activity toward kinase c-Raf-1
# T2 construct: purchased Upstate Biotechnology
# Flt1 = target: T3, Flt1 (Homo sapiens, UniProt P17948); test: AlphaScreen kinase assay, Flt1; conditions: read-out: IC50, activity toward kinase Flt1
# T3 construct: P1826.pETN6 BI-PTP FLT1 M799-D1165-X WT; His6 (N); made in house; host or cells: E. coli (PTP1B co-expressed)
# T3 sequence (P17948 with tags, fused parts or gaps): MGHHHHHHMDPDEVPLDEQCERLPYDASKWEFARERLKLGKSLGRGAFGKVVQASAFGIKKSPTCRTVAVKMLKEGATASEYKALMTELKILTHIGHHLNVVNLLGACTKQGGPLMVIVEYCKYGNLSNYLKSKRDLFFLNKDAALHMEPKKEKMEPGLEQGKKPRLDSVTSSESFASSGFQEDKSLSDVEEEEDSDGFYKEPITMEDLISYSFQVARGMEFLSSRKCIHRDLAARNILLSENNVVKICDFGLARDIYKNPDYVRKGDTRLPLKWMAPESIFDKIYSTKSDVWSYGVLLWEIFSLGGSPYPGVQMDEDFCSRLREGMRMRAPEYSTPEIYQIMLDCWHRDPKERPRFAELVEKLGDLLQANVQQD
# Flt4 = target: T4, Flt4 (Homo sapiens, UniProt P35916); test: AlphaScreen kinase assay, Flt4; conditions: read-out: IC50, activity toward kinase Flt4
# T4 construct: purchased ProQinase GmbH (Freiburg, Germany)
# Procedure, shortened: as §1
# Src = target: T5, Src (Homo sapiens, UniProt P12931); test: AlphaScreen kinase assay, Src; conditions: read-out: IC50, activity toward kinase Src
# T5 construct: P1144. pET-N6 BI-PTP SRC V86-L536-X; made in house
# Akt3 = Akt3 (Homo sapiens, UniProt Q9Y243); test: AlphaScreen kinase assay, Akt3; conditions: read-out: IC50, activity toward kinase Akt3
# Procedure, shortened: as §1
# Jnk1 = target: T6, Jnk1 (Homo sapiens, UniProt P45983); test: AlphaScreen kinase assay, Jnk1; conditions: read-out: IC50, activity toward kinase Jnk1
# T6 construct: purchased Upstate Biotechnology
# Jnk3 = target: T7, Jnk3 (Homo sapiens, UniProt P53779); test: AlphaScreen kinase assay, Jnk3; conditions: read-out: IC50, activity toward kinase Jnk3
# T7 construct: purchased Upstate Biotechnology
# PKC theta = target: T8, PKC theta (Homo sapiens, UniProt Q04759); test: Z'-Lyte FRET kinase assay (Invitrogen), PKC theta; conditions: read-out: IC50, activity toward kinase PKC theta
# T8 construct: purchased Invitrogen (Carlsbad, Calif.), screening service
# Procedure, shortened: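 Serially diluted compound (1% DMSO final) is mixed with kinase plus 2 μM peptide substrate in pH 7.5 HEPES buffer, then ATP is added to 10 μM. After 1 h at room temperature, site-specific protease is added for another hour, reactions are stopped and fluorescence ratio measured.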
# T2 sequence (P04049 whole entry): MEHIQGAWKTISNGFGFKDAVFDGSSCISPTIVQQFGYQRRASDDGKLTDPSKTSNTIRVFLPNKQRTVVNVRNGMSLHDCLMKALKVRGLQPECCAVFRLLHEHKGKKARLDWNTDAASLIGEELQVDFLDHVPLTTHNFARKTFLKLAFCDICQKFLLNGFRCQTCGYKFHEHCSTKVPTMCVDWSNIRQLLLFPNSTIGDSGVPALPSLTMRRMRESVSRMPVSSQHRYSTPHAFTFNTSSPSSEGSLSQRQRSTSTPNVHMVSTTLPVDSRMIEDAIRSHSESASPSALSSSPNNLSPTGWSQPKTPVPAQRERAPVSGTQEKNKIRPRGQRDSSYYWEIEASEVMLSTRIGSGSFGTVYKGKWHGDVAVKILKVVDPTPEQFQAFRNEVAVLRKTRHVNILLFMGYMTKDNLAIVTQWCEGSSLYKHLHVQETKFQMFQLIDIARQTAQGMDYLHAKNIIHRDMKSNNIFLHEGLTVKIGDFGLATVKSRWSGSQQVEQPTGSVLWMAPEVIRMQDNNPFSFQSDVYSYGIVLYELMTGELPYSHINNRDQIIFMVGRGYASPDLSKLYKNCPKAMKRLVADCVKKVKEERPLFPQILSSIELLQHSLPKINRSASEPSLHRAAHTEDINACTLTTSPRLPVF
# T4 sequence (P35916 25-1363): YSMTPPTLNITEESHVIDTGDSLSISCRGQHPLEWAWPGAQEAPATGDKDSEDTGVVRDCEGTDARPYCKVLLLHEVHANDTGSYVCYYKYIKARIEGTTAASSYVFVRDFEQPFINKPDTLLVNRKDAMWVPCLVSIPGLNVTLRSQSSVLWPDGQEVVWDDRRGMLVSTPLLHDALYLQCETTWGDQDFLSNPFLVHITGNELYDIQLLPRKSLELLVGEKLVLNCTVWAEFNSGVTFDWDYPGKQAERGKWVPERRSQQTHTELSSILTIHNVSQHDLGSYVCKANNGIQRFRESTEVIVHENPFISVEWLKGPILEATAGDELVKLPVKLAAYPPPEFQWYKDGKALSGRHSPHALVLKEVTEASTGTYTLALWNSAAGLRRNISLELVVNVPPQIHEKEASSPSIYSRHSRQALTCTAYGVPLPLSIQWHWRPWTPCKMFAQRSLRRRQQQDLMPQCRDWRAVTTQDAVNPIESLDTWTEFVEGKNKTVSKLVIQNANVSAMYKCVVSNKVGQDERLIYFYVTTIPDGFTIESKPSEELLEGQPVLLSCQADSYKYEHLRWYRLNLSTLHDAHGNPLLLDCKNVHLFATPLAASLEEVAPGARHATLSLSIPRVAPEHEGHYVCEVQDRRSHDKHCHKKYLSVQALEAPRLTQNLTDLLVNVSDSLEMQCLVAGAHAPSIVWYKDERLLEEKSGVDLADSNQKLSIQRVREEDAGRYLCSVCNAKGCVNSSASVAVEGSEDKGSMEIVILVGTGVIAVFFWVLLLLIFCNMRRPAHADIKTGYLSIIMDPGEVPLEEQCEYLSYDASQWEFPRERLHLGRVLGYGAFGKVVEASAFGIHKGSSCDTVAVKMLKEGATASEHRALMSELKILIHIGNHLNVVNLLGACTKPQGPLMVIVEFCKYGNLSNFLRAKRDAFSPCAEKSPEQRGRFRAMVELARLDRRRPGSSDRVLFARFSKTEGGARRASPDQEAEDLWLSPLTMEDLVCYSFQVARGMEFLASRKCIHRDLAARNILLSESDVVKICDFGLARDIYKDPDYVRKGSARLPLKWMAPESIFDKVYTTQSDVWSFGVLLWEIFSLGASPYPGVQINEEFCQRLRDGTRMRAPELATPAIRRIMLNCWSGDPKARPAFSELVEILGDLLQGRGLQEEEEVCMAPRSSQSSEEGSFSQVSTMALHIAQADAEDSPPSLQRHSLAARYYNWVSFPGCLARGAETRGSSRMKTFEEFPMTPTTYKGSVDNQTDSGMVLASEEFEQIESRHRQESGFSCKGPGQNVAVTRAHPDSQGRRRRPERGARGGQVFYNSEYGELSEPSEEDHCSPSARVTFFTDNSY
# T8 sequence (Q04759 whole entry): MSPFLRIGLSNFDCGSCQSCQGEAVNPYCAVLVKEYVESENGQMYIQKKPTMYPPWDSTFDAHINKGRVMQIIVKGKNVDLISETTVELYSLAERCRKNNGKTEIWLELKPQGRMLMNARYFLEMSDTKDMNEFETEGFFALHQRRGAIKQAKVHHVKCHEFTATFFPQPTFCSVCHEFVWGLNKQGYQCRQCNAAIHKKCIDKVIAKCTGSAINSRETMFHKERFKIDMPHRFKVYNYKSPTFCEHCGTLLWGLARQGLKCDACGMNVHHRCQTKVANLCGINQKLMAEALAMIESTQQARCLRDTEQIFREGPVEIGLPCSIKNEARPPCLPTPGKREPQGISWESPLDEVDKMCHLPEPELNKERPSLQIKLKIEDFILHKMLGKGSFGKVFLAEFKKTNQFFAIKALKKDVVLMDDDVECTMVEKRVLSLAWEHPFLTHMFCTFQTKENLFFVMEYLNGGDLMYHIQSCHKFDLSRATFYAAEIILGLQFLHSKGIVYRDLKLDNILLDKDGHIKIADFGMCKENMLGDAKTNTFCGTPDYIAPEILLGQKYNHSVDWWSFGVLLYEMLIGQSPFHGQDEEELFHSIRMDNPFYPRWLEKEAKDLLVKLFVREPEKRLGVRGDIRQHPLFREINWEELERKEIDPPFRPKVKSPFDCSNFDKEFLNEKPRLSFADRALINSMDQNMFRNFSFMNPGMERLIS
# T7 sequence (P53779 whole entry): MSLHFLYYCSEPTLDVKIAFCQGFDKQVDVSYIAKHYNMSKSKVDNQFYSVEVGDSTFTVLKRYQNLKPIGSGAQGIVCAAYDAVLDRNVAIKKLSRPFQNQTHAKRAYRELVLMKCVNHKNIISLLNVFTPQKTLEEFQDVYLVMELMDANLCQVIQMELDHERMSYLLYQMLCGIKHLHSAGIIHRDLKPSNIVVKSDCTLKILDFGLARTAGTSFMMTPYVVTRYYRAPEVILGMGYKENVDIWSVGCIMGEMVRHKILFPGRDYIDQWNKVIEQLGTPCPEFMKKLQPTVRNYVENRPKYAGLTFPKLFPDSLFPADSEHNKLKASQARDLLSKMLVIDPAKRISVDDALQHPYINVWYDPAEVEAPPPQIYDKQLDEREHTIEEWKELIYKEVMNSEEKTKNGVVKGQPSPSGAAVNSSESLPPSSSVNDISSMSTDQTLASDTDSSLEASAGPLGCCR
# T5 sequence (P12931 with tags, fused parts or gaps): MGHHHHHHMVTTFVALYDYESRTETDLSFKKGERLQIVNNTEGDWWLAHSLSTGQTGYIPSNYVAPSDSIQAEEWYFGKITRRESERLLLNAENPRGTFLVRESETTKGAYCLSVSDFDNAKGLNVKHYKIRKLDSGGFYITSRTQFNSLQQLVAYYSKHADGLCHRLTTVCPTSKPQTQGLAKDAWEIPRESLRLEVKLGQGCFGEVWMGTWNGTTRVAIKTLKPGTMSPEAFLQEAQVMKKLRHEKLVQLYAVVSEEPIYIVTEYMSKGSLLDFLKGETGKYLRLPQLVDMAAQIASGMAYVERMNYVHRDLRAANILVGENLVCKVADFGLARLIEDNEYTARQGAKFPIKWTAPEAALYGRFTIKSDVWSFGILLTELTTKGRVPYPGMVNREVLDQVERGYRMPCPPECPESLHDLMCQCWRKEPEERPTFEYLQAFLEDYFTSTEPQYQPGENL
# T6 sequence (P45983 whole entry): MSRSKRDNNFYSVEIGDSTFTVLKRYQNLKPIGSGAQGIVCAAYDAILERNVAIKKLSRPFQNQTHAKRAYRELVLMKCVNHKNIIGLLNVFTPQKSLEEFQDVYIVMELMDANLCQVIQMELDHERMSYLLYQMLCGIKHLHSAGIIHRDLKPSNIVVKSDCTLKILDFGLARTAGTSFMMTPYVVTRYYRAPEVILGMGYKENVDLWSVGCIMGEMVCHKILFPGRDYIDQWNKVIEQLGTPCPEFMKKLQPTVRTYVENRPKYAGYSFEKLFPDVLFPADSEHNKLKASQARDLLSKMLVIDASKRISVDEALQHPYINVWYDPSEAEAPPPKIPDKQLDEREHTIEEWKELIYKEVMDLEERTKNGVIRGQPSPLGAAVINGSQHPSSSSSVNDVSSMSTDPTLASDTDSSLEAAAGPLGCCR
# Chain of Akt3 (Q9Y243 whole entry): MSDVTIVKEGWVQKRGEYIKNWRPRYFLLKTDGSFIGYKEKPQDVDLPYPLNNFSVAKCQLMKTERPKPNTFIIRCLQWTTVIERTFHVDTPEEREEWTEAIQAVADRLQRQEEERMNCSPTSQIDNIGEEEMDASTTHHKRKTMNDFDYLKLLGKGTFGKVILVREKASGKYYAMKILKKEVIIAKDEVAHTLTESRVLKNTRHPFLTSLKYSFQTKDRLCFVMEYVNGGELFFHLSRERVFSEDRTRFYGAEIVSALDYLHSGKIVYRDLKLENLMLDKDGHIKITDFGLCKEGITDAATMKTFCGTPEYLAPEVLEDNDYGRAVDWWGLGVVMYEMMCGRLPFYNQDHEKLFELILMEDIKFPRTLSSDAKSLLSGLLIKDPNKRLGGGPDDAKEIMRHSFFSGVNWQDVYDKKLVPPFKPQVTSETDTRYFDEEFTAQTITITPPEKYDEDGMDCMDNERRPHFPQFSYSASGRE
IC50 (Abl) [µM],IC50 (c-Raf-1) [µM],IC50 (Flt1) [µM],IC50 (Flt4) [µM],IC50 (Src) [µM],IC50 (Akt3) [µM],IC50 (Jnk1) [µM],IC50 (Jnk3) [µM],IC50 (PKC theta) [µM],SMILES
,,,,,,,,≤ 10,O=C(c1cc(F)ccc1F)c1c[nH]c2nccc(-c3cccnc3)c12 [Compound P-0063]
,,,,,,,,≤ 10,CC(=O)Nc1cccc(-c2ccnc3[nH]cc(C(=O)c4ccccc4F)c23)c1 [Compound P-0070]
≤ 10,≤ 10,≤ 10,≤ 10,≤ 10,,≤ 10,≤ 10,,COc1ccc(F)c(C(=O)c2c[nH]c3ncc(-c4cccnc4)cc23)c1 [Compound P-0090]
≤ 10,,,≤ 10,,,,≤ 10,,Oc1cc(O)cc(Cc2c[nH]c3ncc(-c4ccsc4)cc23)c1 [Compound P-0093]
,,,,,,,,≤ 10,Cc1ccccc1C(=O)c1c[nH]c2nccc(-c3cccc(NS(C)(=O)=O)c3)c12 [Compound P-0109]
≤ 10,,≤ 10,,≤ 10,,≤ 10,≤ 10,,O=C(c1ccccc1F)c1c[nH]c2ncc(-c3ccsc3)cc12 [Compound P-0134]
≤ 10,,≤ 10,≤ 10,≤ 10,≤ 10,≤ 10,≤ 10,,O=C(c1cccc(O)c1)c1c[nH]c2ncc(-c3cccs3)cc12 [Compound P-0196]
≤ 10,≤ 10,≤ 10,≤ 10,≤ 10,,≤ 10,≤ 10,,"O=C(c1cccc(O)c1F)c1c[nH]c2ncc(-c3cccs3)cc12 [Compound P-0521, (2-fluoro-3-hydroxy-phenyl)-(5-thiophen-2-yl-1H-pyrrolo[2,3-b]pyridin-3-yl)-methanone]"
≤ 10,≤ 10,,,≤ 10,,,,,"CCCS(=O)(=O)Nc1ccc(F)c(C(=O)c2c[nH]c3ncc(OC)cc23)c1F [Compound P-0806, Propane-1-sulfonic acid [2,4-difluoro-3-(5-methoxy-1H-pyrrolo[2,3-b]pyridine-3-carbonyl)-phenyl]-amide]"
≤ 10,≤ 10,≤ 10,,≤ 10,,≤ 10,≤ 10,,"CCCCNC(=O)Nc1ccc(F)c(C(=O)c2c[nH]c3ncc(-c4cccnc4)cc23)c1F [Compound P-1318, 1-Butyl-3-[2,4-difluoro-3-(5-pyridin-3-yl-1H-pyrrolo[2,3-b]pyridine-3-carbonyl)-phenyl]-urea]"
≤ 10,≤ 10,,,≤ 10,,≤ 10,,,"COc1cccc(C(=O)c2c[nH]c3ncc(-c4cccc(NC(C)=O)c4)cc23)c1F [Compound P-1336, N-{3-[3-(2-Fluoro-3-methoxy-benzoyl)-1H-pyrrolo[2,3-b]pyridin-5-yl]-phenyl}-acetamide]"
≤ 10,,,,≤ 10,,≤ 10,≤ 10,,"OCCOc1ccc(F)c(Cc2c[nH]c3ncc(-c4cccnc4)cc23)c1F [Compound P-1394, 2-[2,4-Difluoro-3-(5-pyridin-3-yl-1H-pyrrolo[2,3-b]pyridin-3-ylmethyl)-phenoxy]-ethanol]"

# Second part, the molecule before the results:
SMILES,IC50 (Abl) [µM],IC50 (c-Raf-1) [µM],IC50 (Flt1) [µM],IC50 (Flt4) [µM],IC50 (Src) [µM],IC50 (Akt3) [µM],IC50 (Jnk1) [µM],IC50 (Jnk3) [µM],IC50 (PKC theta) [µM]
O=C(c1cc(O)ccc1F)c1c[nH]c2ncccc12 [Compound P-0005],≤ 10,≤ 10,≤ 10,≤ 10,≤ 10,≤ 10,,,
"Cc1c(O)cccc1C(=O)c1c[nH]c2ncc(-c3cccnc3)cc12 [Compound P-0006, (3-Hydroxy-2-methyl-phenyl)-(5-pyridin-3-yl-1H-pyrrolo[2,3b]pyridin-3-yl)-methanone]",,≤ 10,,,≤ 10,≤ 10,≤ 10,≤ 10,≤ 10
"CCCS(=O)(=O)Nc1ccc(F)c(C(=O)c2c[nH]c3ncccc23)c1F [Compound P-0007, Propane-1-sulfonic acid [2,4-difluoro-3-(1H-pyrrolo[2,3-b]pyridine-3-carbonyl)-phenyl]-amide]",≤ 10,≤ 10,,,≤ 10,,,,
O=C(O)/C=C/c1cccc(-c2cnc3[nH]cc(C(=O)c4cc(O)ccc4F)c3c2)c1 [Compound P-0010],≤ 10,≤ 10,,,≤ 10,,≤ 10,≤ 10,
NC(=O)c1ccc(-c2ccnc3[nH]cc(C(=O)c4cc(F)ccc4F)c23)cc1 [Compound P-0013],,,≤ 10,,,,,,≤ 10
NC(=O)c1ccc(-c2ccnc3[nH]cc(C(=O)c4ccccc4F)c23)cc1 [Compound P-0014],,,,,,,,,≤ 10
Cc1ccccc1C(=O)c1c[nH]c2nccc(-c3ccc(C(N)=O)cc3)c12 [Compound P-0017],,,≤ 10,,≤ 10,,,,≤ 10
CS(=O)(=O)c1cccc(-c2cnc3[nH]cc(C(O)c4c(F)ccc(F)c4F)c3c2)c1 (stereo not shown) [Compound P-0020],,,≤ 10,,,,,,≤ 10
O=C(c1ccc(O)cc1Cl)c1c[nH]c2ncccc12 [Compound P-0021],,≤ 10,≤ 10,,≤ 10,≤ 10,≤ 10,,≤ 10
Nc1cccc(-c2ccnc3[nH]cc(C(=O)c4ccccc4F)c23)c1 [Compound P-0022],,,,,,,,,≤ 10
Nc1ccnc2[nH]cc(C(=O)c3ccccc3)c12 [Compound P-0029],,,,≤ 10,,,,,
O=C(c1cc(O)ccc1F)c1c[nH]c2ncc(-c3cccs3)cc12 [Compound P-0032],≤ 10,≤ 10,≤ 10,≤ 10,≤ 10,,≤ 10,≤ 10,
Cc1ccc(F)cc1C(=O)c1c[nH]c2ncc(-c3cccc(N)c3)cc12 [Compound P-0040],≤ 10,,,≤ 10,≤ 10,,≤ 10,≤ 10,
Cn1cc(C(F)(F)F)c(-c2ccc(S(=O)(=O)NCc3c[nH]c4ncccc34)s2)n1 [Compound P-0041],≤ 10,,≤ 10,≤ 10,≤ 10,≤ 10,,≤ 10,
Cc1ccccc1C(=O)c1c[nH]c2nccc(-c3cccc(N)c3)c12 [Compound P-0044],,,,,,,,,≤ 10
O=C(c1cc(O)ccc1F)c1c[nH]c2ncc(-c3ccccc3)cc12 [Compound P-0045],≤ 10,≤ 10,,,≤ 10,,≤ 10,≤ 10,
Nc1cccc(-c2ccnc3[nH]cc(C(=O)c4cc(F)ccc4F)c23)c1 [Compound P-0046],,,,,,,,,≤ 10
O=C(c1cccc(O)c1)c1c[nH]c2ncc(-c3cccnc3)cc12 [Compound P-0048],≤ 10,,,,,≤ 10,,,
NC(=O)c1cccc(-c2ccnc3[nH]cc(C(=O)c4cc(F)ccc4F)c23)c1 [Compound P-0049],,,,,,,,,≤ 10
O=C(c1ccccc1F)c1c[nH]c2nccc(-c3ccsc3)c12 [Compound P-0051],,,,,,,,,≤ 10
"Cc1c(O)cccc1C(=O)c1c[nH]c2ncc(Br)cc12 [Compound P-0055, (5-Bromo-1H-pyrrolo[2,3-b]pyridin-3-yl)-(3-hydroxy-2-methyl-phenyl)-methanone]",,≤ 10,≤ 10,,≤ 10,≤ 10,,,≤ 10
Cc1ccc(S(=O)(=O)NCc2c[nH]c3ncccc23)cc1 [Compound P-0058],≤ 10,,,,,≤ 10,,≤ 10,
CS(=O)(=O)Nc1cccc(-c2ccnc3[nH]cc(C(=O)c4cc(F)ccc4F)c23)c1 [Compound P-0060],,,,,,≤ 10,,,≤ 10
